# According to paper PMC5600277 (Neuropharmacology, 2017):
# Where two headings read alike, the source gives them in different places.
# Columns and labels:
# Type in all cases: cell-based
# [1] = biological target: T1, GLIC (Gloeobacter violaceus, UniProt Q7NDN8); assay: two-electrode voltage clamp in Xenopus oocytes, […] inhibition at […]; conditions: read-out: % inhibition at 30 μM
# T1 sequence (Q7NDN8 44-359): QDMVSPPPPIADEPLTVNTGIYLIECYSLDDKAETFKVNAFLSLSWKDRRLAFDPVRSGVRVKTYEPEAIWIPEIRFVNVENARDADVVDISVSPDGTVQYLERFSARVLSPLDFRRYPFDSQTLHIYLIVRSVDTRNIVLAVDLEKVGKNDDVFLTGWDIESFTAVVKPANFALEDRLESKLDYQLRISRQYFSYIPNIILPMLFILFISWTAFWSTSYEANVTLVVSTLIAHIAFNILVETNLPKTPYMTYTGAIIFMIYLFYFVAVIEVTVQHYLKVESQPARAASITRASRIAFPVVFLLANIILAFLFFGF
# [2] = biological target: T2, GABAρ receptor (GABAAR ρ1) (Homo sapiens, UniProt P24046); assay: two-electrode voltage clamp in Xenopus oocytes, […] potentiation at […]; conditions: read-out: % potentiation at 10 μM
# T2 sequence (P24046 22-479): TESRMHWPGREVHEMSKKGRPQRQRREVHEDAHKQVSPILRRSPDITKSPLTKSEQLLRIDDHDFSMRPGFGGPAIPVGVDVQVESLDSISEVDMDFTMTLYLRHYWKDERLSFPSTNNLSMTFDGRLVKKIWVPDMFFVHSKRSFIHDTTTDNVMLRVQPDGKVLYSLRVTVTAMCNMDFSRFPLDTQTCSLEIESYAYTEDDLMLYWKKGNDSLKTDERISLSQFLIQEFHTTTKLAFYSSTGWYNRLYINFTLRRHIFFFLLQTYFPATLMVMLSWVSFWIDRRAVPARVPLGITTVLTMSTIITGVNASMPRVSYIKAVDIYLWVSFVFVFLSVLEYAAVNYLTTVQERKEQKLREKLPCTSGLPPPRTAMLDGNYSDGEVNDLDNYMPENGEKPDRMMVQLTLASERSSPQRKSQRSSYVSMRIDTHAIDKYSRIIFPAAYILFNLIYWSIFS
# [3] = biological target: T2, GABAρ receptor (GABAAR ρ1); assay: two-electrode voltage clamp in Xenopus oocytes, […] inhibition at […]; conditions: read-out: % inhibition at 10 μM
# [4] = biological target: T1, GLIC; assay: as above; conditions: read-out: % inhibition at 30 μM; remark: listed apart in the source
# [5] = biological target: T1, GLIC; assay: as above; conditions: read-out: % inhibition at 100 μM
smiles,measurement,setting,value
C[C@]12CC[C@@H](O)C[C@@H]1CC[C@@H]1[C@@H]2CC[C@]2(C)[C@@H](C(=O)CO)CC[C@@H]12 [5α-THDOC],inhibition at 30 µM,[1],11 ± 2%
same,activation at 10 µM,[2],42 ± 2%
C[C@]12CC[C@@H](O)C[C@H]1CC[C@@H]1[C@@H]2CC[C@]2(C)[C@@H](C(=O)CO)CC[C@@H]12 [5β-THDOC],inhibition at 10 µM,[3],25 ± 2%
same,inhibition at 30 µM,[4],67 ± 3%
"CCCC(C)C1(CC)C(=O)NC(=O)NC1=O (centres unmarked) [PB, pentobarbital]",inhibition at 100 µM,[5],26 ± 6%
